Results as given in PubChem BioAssay AID2060617 (Molecular Pharmacology Branch, DTP, NCI, 2025).

Tested on: 485368-065-R4-J2-PDC spheroids with HUVEC/MSC, viability
Assay: Anticancer human tumor 485368-065-R4-J2-PDC patient-derived pancreatic carcinoma cell line growth inhibition [CLK]
Conditions: for IC50: curve of first compound; for viability, T/C: stronger effect = lower value; active = viability on the fitted dose curve at most 10% of control; inactive = the rest
Excerpt: A high-throughput screen of multi-cell type tumor spheroids was designed to identify active combinations of […] and targeted small molecules. Complex spheroids include a stromal component modeled by human endothelial cells (HUVEC) and fibroblasts modeled by human mesenchymal stem cells (MSCs). The concentration ranges selected for each drug and investigational agent were based upon clinically achievable concentrations if the clinical Cmax of the agent was known.
Compounds. The drugs and investigational agents: cirtuvivint (SM08502; NSC835563), CC-671 (NSC850746), vemurafenib (NSC761431), tapotoclax (NSC804041), sotorasib (NSC818433), adagrasib (NSC831453), MRTX-1133 (NSC836407), BAY2416964 (NSC825713), copanlisib (NSC816437), inavolisib (NSC800729), abemaciclib (NSC768073), osimertinib (NSC779217), entinostat (NSC756642), eltanexor (KPT-8602, NSC794443), venetoclax (NSC766270), ceralasertib (NSC777638), bortezomib (NSC756655), olaparib (NSC753686), talazoparib (NSC767125), alisertib (NSC759677), peposertib (NSC802822), gemcitabine (NSC613327), 5-fluorouracil (NSC19893), SN-38 (NSC673596), oxaliplatin (NSC266046), paclitaxel (NSC125973), and doxorubicin (NSC123127), were obtained from the National Cancer Institute (NCI) Developmental Therapeutics Program Chemical Repository. The FDA-approved anticancer drug set is available from the Developmental Therapeutics Program at https://dtp.cancer.gov/organization/dscb/obtaining/available plates.htm. […] The stock solutions were prepared in dimethyl sulfoxide (DMSO, Sigma-Aldrich, St. Louis, MO, cat. D2650), except for the platinum complexes which were prepared in saline (Quality Biological, Gaithersburg, MD, cat. 114-055-101), at 800-fold the tested concentration and stored at -70 degrees C prior to their use. All drugs and investigational agents were tested over a range starting from a high concentration at or near the clinical Cmax and decreasing in half-log increments. If the clinical Cmax for an agent had not been determined, the highest concentration tested was 10 microM.
Cell Culture. All cells were maintained in an incubator at 37 degrees C and 5% CO2 with 95% humidity. The PDC lines were cultured according to standard operating procedures established by the NCI PDMR. Briefly, all PDCs were thawed and cultured in Matrigel-coated flasks prepared with a working solution of 1X Ham's F-12 nutrient mix, without supplementation (Invitrogen, Waltham, MA, cat. 11765054), 100 U/mL penicillin-streptomycin (Invitrogen, cat. 15140122), and 2.5% Matrigel (Corning Inc., Corning, NY, cat. 354248) for the first three passages. The 947758-054-R-J2-PDC line was cultured in 6B/Colon 1A media, which includes advanced DMEM/F-12 (Thermo Fisher Scientific, cat. 12634028), 10 mM HEPES (Thermo Fisher Scientific, cat. 15630080), 1X GlutaMAX supplement (Thermo Fisher Scientific, cat. 35050061), 0.1 mg/mL primocin (InvivoGen, cat. ant-pm-2), 10% defined fetal bovine serum, heat inactivated (HyClone Laboratories Inc., cat. SH30070.03HI), 1.25 mM N-Acetyl-L-cysteine (Sigma-Aldrich, cat. A9165), 10 mM nicotinamide (Sigma-Aldrich, cat. N0636), 1X B-27 supplement (Thermo Fisher Scientific, cat. 17504044), 1X N-2 supplement (Thermo Fisher Scientific, cat. 17502048), and 10 microM Y-27632 dihydrochloride (Tocris Bioscience, cat. 1254). The 876862-298-R-J1-PDC was cultured in 6E media, which includes all 6B/Colon 1A media components plus 50% L-WRN conditioned media (ATCC, cat. CRL-3276), 50 ng/mL recombinant human EGF recombinant protein (hEGF; Thermo Fisher Scientific, cat. PHG0311), 10 ng/mL recombinant human fibroblast growth factor 10 (hGFG-10; PeproTech, cat. 100-26), 1 ng/mL recombinant human fibroblast growth factor 2 (hFGF-2; PeproTech, cat. 100-18B), and 1 µM prostaglandin E2 (PGE2; Tocris, cat. 2296). The 227483-062-R1-J1-PDC line was cultured in Panc media, containing all 6E components except hFGF-2, with the addition of 500 nM SB-431542 (Selleckchem, cat. S1067) and 10 nM gastrin (Tocris, cat. 3006). […]

[1] = second compound 0.0316 µM, first compound 0.0316 µM
[2] = second compound 0.0316 µM, first compound 0.1 µM
[3] = second compound 0.0316 µM, first compound 0.316 µM
[4] = second compound 0.0316 µM, first compound 1 µM
[5] = second compound 0.0316 µM, first compound 3.16 µM
[6] = second compound 0.0316 µM, first compound 10 µM
[7] = second compound 0.1 µM, first compound 0.0316 µM
[8] = second compound 0.1 µM, first compound 0.1 µM
[9] = second compound 0.1 µM, first compound 0.316 µM
[10] = second compound 0.1 µM, first compound 1 µM
[11] = second compound 0.1 µM, first compound 3.16 µM
[12] = second compound 0.1 µM, first compound 10 µM
[13] = second compound 0.316 µM, first compound 0.0316 µM
[14] = second compound 0.316 µM, first compound 0.1 µM
[15] = second compound 0.316 µM, first compound 0.316 µM
[16] = second compound 0.316 µM, first compound 1 µM
[17] = second compound 0.316 µM, first compound 3.16 µM
[18] = second compound 0.316 µM, first compound 10 µM
[19] = second compound 1 µM, first compound 0.0316 µM
[20] = second compound 1 µM, first compound 0.1 µM
[21] = second compound 1 µM, first compound 0.316 µM
[22] = second compound 1 µM, first compound 1 µM
[23] = second compound 1 µM, first compound 3.16 µM
[24] = second compound 1 µM, first compound 10 µM
[25] = second compound 3.16 µM, first compound 0.0316 µM
[26] = second compound 3.16 µM, first compound 0.1 µM
[27] = second compound 3.16 µM, first compound 0.316 µM
[28] = second compound 3.16 µM, first compound 1 µM
[29] = second compound 3.16 µM, first compound 3.16 µM
[30] = second compound 3.16 µM, first compound 10 µM
[31] = second compound 10 µM, first compound 0.0316 µM
[32] = second compound 10 µM, first compound 0.1 µM
[33] = second compound 10 µM, first compound 0.316 µM
[34] = second compound 10 µM, first compound 1 µM
[35] = second compound 10 µM, first compound 3.16 µM
[36] = second compound 10 µM, first compound 10 µM
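Also: spheroids exposed to compounds for seven days.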
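For viability, T/C in this document: 100% = DMSO vehicle control wells.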

COC1C=CCC(C)C(C)S(=O)(=O)NC(=O)c2ccc3c(c2)N(CC2CCC21)CC1(CCCc2cc(Cl)ccc21)CO3 (stereo unspecified) + CNC(=O)c1ccc(Nc2nc(OC3CCCC3)c3c(-c4ccc5nc(C)oc5c4)c[nH]c3n2)c(OC)c1
inactive: viability, T/C [1] 88.7% | viability, T/C [2] 82.8% | viability, T/C [3] 96.8% | viability, T/C [4] 105% | viability, T/C [5] 103% | viability, T/C [6] 85.9% | viability, T/C [7] 96% | viability, T/C [8] 99.7% | viability, T/C [9] 105% | viability, T/C [10] 96.4% | viability, T/C [11] 92.8% | viability, T/C [12] 91.3% | viability, T/C [13] 82.5% | viability, T/C [14] 77.9% | viability, T/C [15] 89.8% | viability, T/C [16] 89.7% | viability, T/C [17] 98.8% | viability, T/C [18] 102% | viability, T/C [19] 83.2% | viability, T/C [20] 74.1% | viability, T/C [21] 73.7% | viability, T/C [22] 74.9% | viability, T/C [23] 91.8% | viability, T/C [24] 105% | viability, T/C [25] 71.2% | viability, T/C [26] 69.7% | viability, T/C [27] 72.9% | viability, T/C [28] 68.4% | viability, T/C [29] 94.2% | viability, T/C [30] 102% | viability, T/C [31] 65.5% | viability, T/C [32] 68.6% | viability, T/C [33] 69.1% | viability, T/C [34] 66.7% | viability, T/C [35] 82.3% | viability, T/C [36] 85.9%
> 10 µM: IC50 (second compound 0.0316 µM) | IC50 (second compound 0.1 µM) | IC50 (second compound 0.316 µM) | IC50 (second compound 1 µM) | IC50 (second compound 3.16 µM) | IC50 (second compound 10 µM)

CC(Nc1ccc2c(c1)OCCn1cc(N3C(=O)OCC3C(F)F)nc1-2)C(N)=O (stereo unspecified) + CNC(=O)c1ccc(Nc2nc(OC3CCCC3)c3c(-c4ccc5nc(C)oc5c4)c[nH]c3n2)c(OC)c1
0.4 µM: IC50 (second compound 10 µM)
2.51 µM: IC50 (second compound 1 µM)
inactive: viability, T/C [1] 93.5% | viability, T/C [2] 119% | viability, T/C [3] 105% | viability, T/C [4] 97.2% | viability, T/C [5] 90.4% | viability, T/C [6] 79.3% | viability, T/C [7] 92.3% | viability, T/C [8] 116% | viability, T/C [9] 102% | viability, T/C [10] 89.8% | viability, T/C [11] 75.2% | viability, T/C [12] 67.5% | viability, T/C [13] 76.8% | viability, T/C [14] 82.1% | viability, T/C [15] 71.1% | viability, T/C [16] 63.8% | viability, T/C [17] 63.3% | viability, T/C [18] 54.1% | viability, T/C [19] 81.8% | viability, T/C [20] 64.8% | viability, T/C [21] 63.2% | viability, T/C [22] 57.8% | viability, T/C [23] 47.5% | viability, T/C [24] 43.7% | viability, T/C [25] 68.2% | viability, T/C [26] 59% | viability, T/C [27] 50% | viability, T/C [28] 45.8% | viability, T/C [29] 38.7% | viability, T/C [30] 36.6% | viability, T/C [31] 61% | viability, T/C [32] 56.6% | viability, T/C [33] 50.1% | viability, T/C [34] 45.5% | viability, T/C [35] 41.5% | viability, T/C [36] 33.8%
0.368 µM: IC50 (second compound 3.16 µM)
> 10 µM: IC50 (second compound 0.0316 µM) | IC50 (second compound 0.1 µM) | IC50 (second compound 0.316 µM)

Nc1ccccc1NC(=O)c1ccc(CNC(=O)OCc2cccnc2)cc1 + CN1CCN(c2cc(C(=O)Nc3cc4cc(-c5cnn(C)c5)ccc4cn3)ccn2)CC1
inactive: viability, T/C [1] 88.7% | viability, T/C [2] 105% | viability, T/C [3] 91% | viability, T/C [4] 97.7% | viability, T/C [5] 91.6% | viability, T/C [6] 30.7% | viability, T/C [7] 109% | viability, T/C [8] 118% | viability, T/C [9] 99.1% | viability, T/C [10] 102% | viability, T/C [11] 93.1% | viability, T/C [12] 36.2% | viability, T/C [13] 81.1% | viability, T/C [14] 82.1% | viability, T/C [15] 66.8% | viability, T/C [16] 68.6% | viability, T/C [17] 45.5% | viability, T/C [18] 15.6%
7.56 µM: IC50 (second compound 0.1 µM)
2.52 µM: IC50 (second compound 0.316 µM)
6.96 µM: IC50 (second compound 0.0316 µM)
< 0.0316 µM: IC50 (second compound 1 µM) | IC50 (second compound 3.16 µM) | IC50 (second compound 10 µM)
active: viability, T/C [19] 1.64% | viability, T/C [20] 1.49% | viability, T/C [21] 1.21% | viability, T/C [22] 0.42% | viability, T/C [23] 0.41% | viability, T/C [24] 1.05% | viability, T/C [25] 1.12% | viability, T/C [26] 1.85% | viability, T/C [27] 3.03% | viability, T/C [28] 1.14% | viability, T/C [29] 1.31% | viability, T/C [30] 1.7% | viability, T/C [31] 1.94% | viability, T/C [32] 2.06% | viability, T/C [33] 1.81% | viability, T/C [34] 2.05% | viability, T/C [35] 1.05% | viability, T/C [36] 1.74%
